Test results: patent US20200031778A1, “NOVEL 5-SUBSTITUTED IMIDAZOLYLMETHYL DERIVATIVES” (Bayer CropScience Aktiengesellschaft, priority 2016, published 2020)

Assay: Log P by HPLC on reversed phase columns (EEC directive 79/831 Annex V.A8; methods [a], [b], [c])
Assay type: physicochemical
Conditions: for chromatographic logP: reversed phase HPLC column, method [a]: LC-UV, acidic range, 0.1% formic acid in water and acetonitrile as eluent (linear gradient from 10% to 95% acetonitrile)
Method: Measurement of Log P values was performed according to EEC directive 79/831 Annex V.A8 by HPLC (High Performance Liquid Chromatography) on reversed phase columns with the following methods: • ^[a] Log P value is determined by measurement of LC-UV, in an acidic range, with 0.1% formic acid in water and acetonitrile as eluent (linear gradient from 10% acetonitrile to 95% acetonitrile). • ^[b] Log P value is determined by measurement of LC-UV, in a neutral range, with 0.001 molar ammonium acetate solution in water and acetonitrile as eluent (linear gradient from 10% acetonitrile to 95% acetonitrile). • ^[c] Log P value is determined by measurement of LC-UV, in an acidic range, with 0.1% phosphoric acid and acetonitrile as eluent (linear gradient from 10% acetonitrile to 95% acetonitrile).
If more than one Log P value is available within the same method, all the values are given and separated by “+”.
Calibration was done with straight-chain alkan2-ones (with 3 to 16 carbon atoms) with known Log P values (measurement of Log P values using retention times with linear interpolation between successive alkanones). Lambda-max-values were determined using UV-spectra from 200 nm to 400 nm and the peak values of the chromatographic signals.

| LogP | chromatographic logP | SMILES |
| --- | --- | --- |
| 2.89^[a] |  | CCCCC(O)(Cn1cncc1C#N)c1ccccc1Br (centres unmarked) [I-283] |
| 2.42^[a] |  | C#Cc1ccc(C(O)(Cn2cncc2C#N)C2(Cl)CC2)c(F)c1 (centres unmarked) [I-659] |
| 3.72^[a] |  | CC(C)(C)C(O)(C#CCC1CCCCC1)Cn1cncc1C#N (centres unmarked) [I-541] |
| 3.35^[a] |  | N#Cc1cncn1CC(O)c1ccc(Oc2ccc(Cl)cc2)cc1C(F)(F)F (centres unmarked) [I-41] |
| 3.37^[a] |  | N#Cc1cncn1CC(O)(CCC1CCCC1)C1(Cl)CC1 (centres unmarked) [I-596] |
| 2.80^[a] |  | CC(O)(Cn1cncc1Cl)c1ccc(Oc2ccc(Br)cc2)cc1Cl (centres unmarked) [I-173] |
| 2.52^[a] |  | Cc1ccc(C#CC(O)(Cn2cncc2C#N)C2(F)CC2)cc1 (centres unmarked) [I-373] |
| 3.14^[a] |  | CCCC(O)(Cn1cncc1C#N)c1ccc(Cl)cc1Cl (centres unmarked) [I-292] |
| 2.28^[a] |  | OC(Cn1cncc1Cl)c1ccc(Oc2ccc(F)cc2)cc1Cl (centres unmarked) [I-03] |
| 2.08^[a] |  | N#Cc1cncn1CC(O)(c1c(F)cccc1Cl)C1(F)CC1 (centres unmarked) [I-434] |
| 2.95^[a] |  | N#Cc1cncn1CC(O)(CC1CC1)c1cc(Cl)c(F)c(Cl)c1 (centres unmarked) [I-493] |
| 3.23^[a] |  | CC(O)(Cn1cncc1Br)c1ccc(Oc2ccc(I)cc2)cc1Br (centres unmarked) [I-186] |
| 3.99^[a] |  | CCOC(Cn1cncc1Br)c1ccc(Oc2ccc(Cl)cc2)cc1Br (centres unmarked) [I-56] |
| 3.4^8[a] |  | OC(Cn1cncc1C(F)(F)F)c1ccc(Oc2ccc(Cl)cc2)cc1F (centres unmarked) [I-90] |
| 3.42^[a] |  | N#Cc1cncn1CC(O)(c1ccc(Cl)cc1F)C1CCCCC1 (centres unmarked) [I-482] |
| 3.15^[a] |  | COC(Cn1cncc1Cl)c1ccc(Oc2ccc(Cl)cc2)cc1C(F)F (centres unmarked) [I-75] |
| 3.23^[a] |  | N#Cc1cncn1CC(O)c1ccc(Oc2c(F)cc(Cl)cc2F)nc1C(F)(F)F (centres unmarked) [I-135] |
| 2.29^[a] |  | N#Cc1cncn1CC(O)(c1cc(F)cc(F)c1F)C1(Cl)CC1 (centres unmarked) [I-620] |
| 3.13^[a] |  | N#Cc1cncn1CC(O)c1cnc(Oc2ccc(Cl)cc2F)cc1C(F)(F)F (centres unmarked) [I-114] |
| 3.06^[a] |  | CC(O)(Cn1cncc1Cl)c1ccc(Oc2ccc(Br)cc2)cc1Br (centres unmarked) [I-185] |
| 2.30^[a] |  | N#Cc1cncn1CC(O)(C#CC1CCCC1)C1(F)CC1 (centres unmarked) [I-453] |
| 2.71^[a] |  | CCCC(O)(Cn1cncc1C#N)c1ccc(F)cc1C(F)(F)F (centres unmarked) [I-459] |

| LogP | chromatographic logP | SMILES |
| --- | --- | --- |
|  | 2.02 | N#Cc1cncn1CC(=O)c1cccc(Cl)c1F [IX-148] |
| 4.54^[a] |  | CCOC(Cn1cncc1C#N)c1ccc(Oc2ccc(Cl)cc2)cc1C(F)(F)F (centres unmarked) [I-84] |
| 2.75^[a] |  | CC(O)(Cn1cncc1Br)c1ccc(Oc2ccc(Cl)cc2)cc1Cl (centres unmarked) [I-198] |
| 2.11^[a] |  | CC(O)(Cn1cncc1Cl)c1ccc(Oc2ccc(Br)nc2)cc1Cl (centres unmarked) [I-203] |
| 3.09^[a] |  | N#Cc1cncn1CC(O)(C#Cc1ccc(C(F)(F)F)cc1)C1(Cl)CC1 (centres unmarked) [I-350] |
| 2.68^[a] |  | CC1(C(O)(Cn2cncc2C#N)c2ccc(Cl)cc2F)CC1 (centres unmarked) [I-441] |
| 3.08^[a] |  | CCCC(C)C(O)(Cn1cncc1C#N)c1ccc(Cl)cc1 (single isomer, unassigned) [I-327] |
| 3.91^[a] |  | N#Cc1cncn1CC(O)(CCCC1CCCCC1)CC1CC1 (centres unmarked) [I-666] |
| 3.48^[a] |  | CC(O)(Cn1cncc1C#N)c1ccc(Oc2ccc(I)cc2)cc1F (centres unmarked) [I-189] |
| 2.18^[a] |  | N#Cc1cncn1CC(O)(CC1CC1)c1cc(F)ccc1F (centres unmarked) [I-515] |
| 2.66^[a] |  | CCC(O)(Cn1cncc1C#N)c1ccc(Cl)cc1Cl (centres unmarked) [I-301] |
| 2.75^[a] |  | N#Cc1cncn1CC(O)c1ccc(Oc2ccc(Cl)cn2)cc1C(F)(F)F (centres unmarked) [I-66] |
| 1.86^[a] |  | OC(Cn1cncc1Cl)c1ccc(Oc2ccc(Cl)nc2)cc1Cl (centres unmarked) [I-42] |
| 2.64^[a] |  | CC(C)(C)C(O)(Cn1cncc1C#N)c1cc(F)cc(F)c1 (centres unmarked) [I-457] |
| 3.78^[a] |  | N#Cc1cncn1CC(O)(c1ccc(Oc2ccc(Cl)cc2)cc1Cl)C1(Cl)CC1 (centres unmarked) [I-391] |
| 3.24^[a] |  | N#Cc1cncn1CC(O)c1ccc(Oc2ccc(I)cc2)cc1F (centres unmarked) [I-49] |
| 2.36^[a] |  | N#Cc1cncn1CC(O)(c1c(F)cc(Cl)cc1F)C1(F)CC1 (centres unmarked) [I-519] |
| 2.74^[a] |  | N#Cc1cncn1CC(O)(c1cc(Cl)c(F)c(Cl)c1)C1(F)CC1 (centres unmarked) [I-477] |
| 3.55^[a] |  | CC(C)(C)CC(O)(Cn1cncc1C#N)c1ccc(C(F)(F)F)cc1F (centres unmarked) [I-273] |
| 2.94^[a] |  | CC(O)(Cn1cncc1C#N)c1cnc(Oc2ccc(C(F)F)cc2)cc1C(F)(F)F (centres unmarked) [I-234] |
| 2.82^[a] |  | OC(Cn1cncc1Cl)c1ccc(Oc2ccc(OC(F)(F)F)cc2)cc1Cl (centres unmarked) [I-04] |
| 2.18^[a] |  | N#Cc1cncn1CC(O)(c1cc(F)cc(F)c1F)C1(F)CC1 (centres unmarked) [I-588] |

| LogP | chromatographic logP | SMILES |
| --- | --- | --- |
| 1.99^[a] |  | N#Cc1cncn1CC(O)(CC1CC1)C1(F)CC1 (centres unmarked) [I-504] |
| 2.56^[a] |  | N#Cc1cncn1CC(O)(c1cc(Cl)ccc1Cl)C1(Cl)CC1 (centres unmarked) [I-336] |
| 2.23^[a] |  | N#Cc1cncn1CC(O)(c1c(F)ccc(F)c1F)C1(Cl)CC1 (centres unmarked) [I-615] |
| 2.51^[a] |  | CC(C)(C)C(O)(Cn1cncc1C#N)c1ccc(F)cc1 (centres unmarked) [I-347] |
| 2.75^[a] |  | CC(C)(C)C(O)(Cn1cncc1Cl)c1cc2cc(OC(F)(F)F)ccc2o1 (centres unmarked) [I-215] |
| 4.08^[a] |  | COC(Cn1cncc1C#N)c1ccc(Oc2ccc(Cl)cc2)cc1Br (centres unmarked) [I-61] |
| 2.68^[a] |  | CC(C)C(O)(Cn1cncc1C#N)c1ccc(Cl)cc1F (centres unmarked) [I-417] |
| 2.60^[a] |  | OC(Cn1cncc1Br)c1ccc(Oc2ccc(Cl)cc2)cc1Cl (centres unmarked) [I-14] |
| 1.56^[a] |  | C=CCC(O)(Cn1cncc1C#N)C1(F)CC1 (centres unmarked) [I-664] |
| 2.98^[a] |  | N#Cc1cncn1CC(O)(C#CC1(c2ccc(F)cc2)CC1)C1(Cl)CC1 (centres unmarked) [I-605] |
| 2.75^[a] |  | CC(=O)c1cncn1CC(C)(O)c1ccc(Oc2ccc(Br)cc2)cc1F (centres unmarked) [I-190] |
| 3.59^[a] |  | CC(C)(C)C(O)(Cn1cncc1C#N)c1cc(Cl)c(Cl)c(Cl)c1 (centres unmarked) [I-546] |
| 4.24^[a] |  | C[Si](C)(C)C#Cc1ccc(C(O)(Cn2cncc2C#N)C2(Cl)CC2)c(Cl)c1 (centres unmarked) [I-366] |
| 3.46^[a] |  | N#Cc1cncn1CC(O)(c1ccc(F)cc1Br)C1CCCCC1 (centres unmarked) [I-479] |
| 2.11^[a] |  | OC(Cn1cncc1F)c1cnc(Oc2ccc(C(F)F)cc2)cc1C(F)(F)F (centres unmarked) [I-116] |
| 2.12^[a] |  | N#Cc1cncn1CC(O)(c1cccc(F)c1Cl)C1(F)CC1 (centres unmarked) [I-555] |
| 2.66^[a] |  | N#Cc1cncn1CC(O)(c1ccc(Cl)cc1Br)C1(F)CC1 (centres unmarked) [I-386] |
| 2.47^[a] |  | N#Cc1cncn1CC(O)(c1c(F)ccc(Cl)c1F)C1(Cl)CC1 (centres unmarked) [I-622] |
| 2.14^[a] |  | N#Cc1cncn1CC(O)(c1cc(F)cc(F)c1)C1(F)CC1 (centres unmarked) [I-473] |
|  | 1.88 | N#Cc1cncn1CC(=O)c1ccc(Cl)s1 [IX-125] |
| 2.39^[a] |  | N#Cc1cncn1CC(O)(c1ccc(F)c(Cl)c1)C1(F)CC1 (centres unmarked) [I-444] |
| 2.39^[a] |  | CC(O)(Cn1cncc1F)c1cnc(Oc2ccc(Br)cc2)cc1C(F)(F)F (single isomer, unassigned) [I-221] |

| LogP | chromatographic logP | SMILES |
| --- | --- | --- |
| 2.32^[a] |  | N#Cc1cncn1CC(O)c1cnc(Oc2ccc(Cl)nc2)cc1C(F)(F)F (centres unmarked) [I-152] |
| 3.01^[a] |  | CC(C)(C)C(O)(Cn1cncc1C#N)c1cc(F)c(Cl)c(F)c1 (centres unmarked) [I-491] |
| 3.14^[a] |  | CC(O)(Cn1cncc1C#N)c1ccc(Oc2ccc(Cl)cc2F)nc1C(F)(F)F (centres unmarked) [I-279] |
| 1.84^[a] |  | CC(O)(Cn1cncc1F)c1ccc(Oc2ccc(Br)nc2)nc1C(F)(F)F (centres unmarked) [I-363] |
| 2.96^[a] |  | OC(Cn1cncc1Br)c1ccc(Oc2ccc(C(F)(F)F)cc2)cc1C(F)(F)F (centres unmarked) [I-38] |
| 2.73^[a] |  | N#Cc1cncn1CC(O)(C#Cc1ccccc1Cl)C1(Cl)CC1 (centres unmarked) [I-324] |
| 2.62^[a] |  | CC(O)(Cn1cncc1F)c1ccc(Oc2ccc(S(F)(F)(F)(F)F)cc2)nc1C(F)(F)F (centres unmarked) [I-297] |
| 2.76^[a] |  | C[Si](C)(C)C#CC(O)(Cn1cncc1C#N)C1(Cl)CC1 (centres unmarked) [I-318] |
| 1.74^[a] |  | N#Cc1cncn1CC(O)(C#CC1CC1)C1(F)CC1 (centres unmarked) [I-693] |
| 2.86^[a] |  | CCc1ccc(C(O)(Cn2cncc2C#N)C2(Cl)CC2)c(Cl)c1 (centres unmarked) [I-353] |
| 2.65^[a] |  | N#Cc1cncn1CC(O)(c1cc(F)c(Cl)cc1Br)C1(F)CC1 (centres unmarked) [I-525] |
| 4.10^[a] |  | OC(CCC1CCCC1)(Cn1cncc1C(F)(F)F)C1(Cl)CC1 (centres unmarked) [I-674] |
| 2.58^[a] |  | N#Cc1cncn1CC(O)(c1ccc(Cl)c(Cl)c1F)C1(F)CC1 (centres unmarked) [I-638] |
| 2.63^[a] |  | N#Cc1cncn1CC(O)(c1cc(F)c(Br)cc1Cl)C1(F)CC1 (centres unmarked) [I-682] |
| 2.90^[a] |  | CC(C)(C)C(O)(Cn1cncc1C#N)c1ccc(F)c(Cl)c1 (centres unmarked) [I-455] |
| 2.78^[a] |  | N#Cc1cncn1CC(O)(CC1CC1)c1ccc(Cl)c(Cl)c1 (centres unmarked) [I-488] |
| 3.60^[a] |  | N#Cc1cncn1CC(O)(c1ccc(C2CC2C2CC2)cc1Cl)C1(F)CC1 (centres unmarked) [I-388] |
| 3.33^[a] |  | N#Cc1cncn1CC(O)(C#CCC1CCCCC1)CC1CC1 (centres unmarked) [I-593] |
| 3.44^[a] |  | CC(C)(C)CC(O)(Cn1cncc1C#N)c1ccc(Cl)cc1F (centres unmarked) [I-260] |
| 1.94^[a] |  | C=CC(C)C(O)(Cn1cncc1C#N)C1(F)CC1 (centres unmarked) [I-375] |
| 3.19^[a] |  | CCCC(O)(Cn1cncc1C#N)c1ccc(C2CC2)cc1Cl (centres unmarked) [I-407] |
| 2.74^[a] |  | CC(C)(C)C(O)(Cn1cncc1C#N)c1ccc(Cl)cc1 (centres unmarked) [I-284] |

| SMILES | LogP | chromatographic logP |
| --- | --- | --- |
| N#Cc1cncn1CC(O)(c1cnc(Br)cc1Cl)C1(F)CC1 (centres unmarked) [I-686] | 1.97^[a] |  |
